# Assay results from patent publication US8993622B2, “Antiviral compounds” (Eirium AB, priority 2010, dated 2015).
# Like-named read-outs stand apart in the source and are kept apart here.
# How the values were obtained:
# cells = assay: Cellular toxicity of select compounds (% dead cells, CC50); type: cell-based; settings: 24 h
# [1] = as above; type: cell-based; settings: conclusions
# Ad5 = assay: microbe, parasite or virus in culture; type: cell-based, human adenovirus
# [2] = tested on: coxsackievirus A24 variant (CVA24v); assay: Coxsackievirus fluorescent focus assay in HCE cells; type: cell-based; design: key: +++: No visible fluorescence was observed; ++: some infected cells were detected; settings: 18 h
# Protocol: Approximately 2×10^5 human corneal epithelial (HCE) cells were plated in 24-well plates the day prior infection. On the day of infection the media was removed and was replaced with media containing 70 virus particles of CVA24v per cell and serial dilutions of compound 35j, ranging from 50- to 6.25 μM. After 18 h of incubation at 37° C. in 5% CO2, the cells were fixed using ice-cold 100% methanol for 5 min. Thereafter, the cells were incubated with a monoclonal mouse anti-VP1 structural protein antibody (clone 5-D8/1, DakoCytomation) diluted 1:200 in PBS, for 1 h in RT. The cells were then washed with PBS and incubated with FITC labeled anti-mouse secondary antibody (DakoCytomation), diluted 1:100 for 1 h, RT, in the dark. Further, unbound antibody was washed away in PBS and the cells were examined in fluorescent microscope.
smiles,measurement,setting,value
"O=C(Nc1cc(F)c(F)cc1C(=O)Nc1ccccc1C(=O)O)c1ccccc1F [Compound 35j, 2-[4,5-difluoro-2-(2-fluorobenzoylamino)-benzoylamino]benzoic acid]",Toxicity at 30 μM (% dead cells after 24 h),cells; 30 μM,6 ± 4%
same,Toxicity at 60 μM (% dead cells after 24 h),cells; 60 μM,16 ± 9%
same,CC50,[1],240000 nM
same,toxicity/activity selectivity index,Ad5; CC50/EC50,890
same,EC50,"Ad5; Human adenovirus sp., A549, read-out: EC50-value",300 nM
same,EC50,"Ad5; unidentified adenovirus, A549",270 nM
same,inhibition at 5 µM,"Ad5; unidentified adenovirus, A549, read-out: % Inh. at 5 μM",94 ± 3%
same,inhibition at 15 µM,"Ad5; unidentified adenovirus, A549, read-out: % Inh. at 15 μM",93 ± 2%
same,Relative inhibition of CVA24v,[2]; 6.25 μM,++
same,Relative inhibition of CVA24v,[2]; 12.5 μM,++
same,Relative inhibition of CVA24v,[2]; 25 μM,+++
same,Relative inhibition of CVA24v,[2]; 50 μM,+++
